Biological target: CDK7/CycH/MNAT1 (Homo sapiens (Human), UniProt P50613)
Assay: Biochemical Assay for CDK7 (TR-FRET kinase assay)
Details: 60 min pre-incubation with kinase, 1 mM ATP
Procedure: Biochemical Assay for CDK7:
The ability of compounds to inhibit CDK7 kinase activity was tested in a TR-FRET assay using 5 nM of CDK7/CycH/MNAT1 obtained from Invitrogen, USA. Test compounds were pre-incubated with the kinase at room temperature for 60 min. After the incubation, substrate mix [100 nM Ultra-light MBP (Perkin Elmer, USA) and 1 mM ATP (Sigma)] was added. The above reaction was stopped by the addition of 40 mM EDTA after 60 minutes of kinase reaction. 1 nM Eu-labelled antiphospho-MBP antibody [Perkin Elmer, USA] was added, mixed well and the fluorescence emission at 615 nm and 665 nm [excitation at 340 nm] was measured. The final DMSO concentration in the assay was 1%. For IC50 determination, appropriate concentrations were made by ⅓^rd serial dilutions of 10 mM DMSO stock solution of test compound. All the fluorescence measurements were made in a Victor 3 Multilabel Counter [Perkin Elmer, USA]. The IC50 was determined by fitting the dose response data to sigmoidal curve fitting equation using GraphPad Prism software V5. To identify compounds that inhibit CDK7 irreversibly, time depended inhibition studies were carried by pre-incubating compound with the enzyme at three time points (20, 60 and 180 min) and carrying out assay as described above.
The compounds were screened by the above mentioned assay procedure.

Chain of CDK7/CycH/MNAT1 (P50613 whole entry): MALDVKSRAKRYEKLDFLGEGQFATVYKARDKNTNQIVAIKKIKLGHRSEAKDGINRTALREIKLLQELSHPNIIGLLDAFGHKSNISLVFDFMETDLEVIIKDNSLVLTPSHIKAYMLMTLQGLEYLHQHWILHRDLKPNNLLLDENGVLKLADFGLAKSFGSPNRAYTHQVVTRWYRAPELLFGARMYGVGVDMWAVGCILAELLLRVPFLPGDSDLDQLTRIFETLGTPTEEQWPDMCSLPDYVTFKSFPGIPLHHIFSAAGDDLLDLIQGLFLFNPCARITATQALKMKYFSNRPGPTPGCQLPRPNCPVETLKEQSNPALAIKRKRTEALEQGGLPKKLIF
Chain of CDK7/CycH/MNAT1 (P51946 whole entry partner): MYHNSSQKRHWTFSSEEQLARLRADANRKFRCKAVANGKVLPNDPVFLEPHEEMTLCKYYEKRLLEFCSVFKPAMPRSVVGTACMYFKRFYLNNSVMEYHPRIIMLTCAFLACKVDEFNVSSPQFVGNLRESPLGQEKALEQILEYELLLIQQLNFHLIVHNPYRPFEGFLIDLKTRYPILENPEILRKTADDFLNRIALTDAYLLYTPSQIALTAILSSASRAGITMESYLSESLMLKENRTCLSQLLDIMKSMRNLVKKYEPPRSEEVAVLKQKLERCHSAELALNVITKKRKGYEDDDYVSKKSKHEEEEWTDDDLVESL
Chain of CDK7/CycH/MNAT1 (P51948 whole entry partner): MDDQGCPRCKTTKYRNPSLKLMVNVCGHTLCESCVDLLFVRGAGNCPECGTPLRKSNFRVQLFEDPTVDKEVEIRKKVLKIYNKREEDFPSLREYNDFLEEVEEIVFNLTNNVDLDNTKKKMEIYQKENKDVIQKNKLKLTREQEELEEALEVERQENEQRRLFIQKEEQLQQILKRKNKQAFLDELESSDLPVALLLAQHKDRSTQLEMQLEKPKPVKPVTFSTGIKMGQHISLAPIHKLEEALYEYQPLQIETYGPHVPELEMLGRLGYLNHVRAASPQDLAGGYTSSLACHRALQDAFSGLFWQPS

| inhibition at 10 µM (10 μM compound) [%] | IC50 [nM] | % inhibition @ 10 μM (10 μM compound) [%] | Structure (SMILES) |
| --- | --- | --- | --- |
| 79 | > 100 | – | C=CC(=O)Nc1c(C)cc(-c2cccc(C(C)C(=O)Nc3cc(C4CC4)[nH]n3)c2)cc1C (centres unmarked) [Compound 67, N-(3′-(1-((5-cyclopropyl-1H-pyrazol-3-yl)amino)-1-oxopropan-2-yl)-3,5-dimethyl-[1,1′-biphenyl]-4-yl)acrylamide] |
| 100 | < 25 | – | C[C@H](C(=O)Nc1cc(C2CC2)[nH]n1)c1cccc(-c2ccc(NC(=O)/C=C/CN3CCOCC3)nc2)c1 [Compound 93, (S,E)-N-(5-(3-(1-((5-cyclopropyl-1H-pyrazol-3-yl)amino)-1-oxopropan-2-yl)phenyl)pyridin-2-yl)-4-morpholinobut-2-enamide] |
| 100 | < 25 | – | C=CC(=O)Nc1ccc(-c2cccc(C(C)C(=O)Nc3cc(C4CC4)[nH]n3)c2)cn1 (centres unmarked) [Compound 20, N-(5-(3-(1-((5-cyclopropyl-1H-pyrazol-3-yl)amino)-1-oxopropan-2-yl)phenyl)pyridin-2-yl)acrylamide] |
| 67 | > 100 | – | CC(C(=O)Nc1cc(C2CC2)[nH]n1)c1cccc(-c2ccc(NC/C=C/C(=O)N(C)C)cn2)c1 (centres unmarked) [Compound 37, (E)-4-((6-(3-(1-((5-cyclopropyl-1H-pyrazol-3-yl)amino)-1-oxopropan-2-yl)phenyl)pyridin-3-yl)amino)-N,N-dimethylbut-2-enamide] |
| 85 | > 100 | – | O=C(/C=C/CN1CCCC1)Nc1ccc(-c2cccc(C3(C(=O)Nc4cc(C5CC5)[nH]n4)CC3)c2)cn1 [Compound 94, (E)-N-(5-cyclopropyl-1H-pyrazol-3-yl)-1-(3-(6-(4-(pyrrolidin-1-yl)but-2-enamido)pyridin-3-yl)phenyl)cyclopropane-1-carboxamide] |
| 28 | > 100 | – | C=CC(=O)Nc1ccc(-c2cccc(C(C)C(=O)Nc3n[nH]c(C4CC4)c3C)c2)cc1 (centres unmarked) [Compound 30, N-(3′-(1-((5-cyclopropyl-4-methyl-1H-pyrazol-3-yl)amino)-1-oxopropan-2-yl)-[1,1′-biphenyl]-4-yl)acrylamide] |
| 62 | > 100 | – | C=CC(=O)Nc1ccc(C(=O)Nc2cccc(Nc3cc(CC)[nH]n3)c2)cc1 [Compound 83, 4-acrylamido-N-(3-((5-ethyl-1H-pyrazol-3-yl)amino)phenyl)benzamide] |
| 100 | < 25 | – | CCN(CC)C/C=C/C(=O)Nc1ccc(-c2cccc(C(C)C(=O)Nc3cc(C4CC4)[nH]n3)c2)cc1F (centres unmarked) [Compound 32, (E)-N-(3′-(1-((5-cyclopropyl-1H-pyrazol-3-yl)amino)-1-oxopropan-2-yl)-3-fluoro-[1,1′-biphenyl]-4-yl)-4-(diethylamino)but-2-enamide] |
| 60 | > 100 | – | CC(C(=O)Nc1cc(C(C)(C)C)[nH]n1)c1cccc(-c2ccc(NC(=O)/C=C/CN(C)C)cc2)c1 (centres unmarked) [Compound 9, (E)-N-(3′-(1-((5-(tert-butyl)-1H-pyrazol-3-yl)amino)-1-oxopropan-2-yl)-[1,1′-biphenyl]-4-yl)-4-(dimethylamino)but-2-enamide] |
| 100 | < 25 | – | CCC(C(=O)Nc1cc(C2CC2)[nH]n1)c1cccc(-c2ccc(NC(=O)/C=C/CN(C)C)c(F)c2)c1 (centres unmarked) [Compound 31, (E)-N-(3′-(1-((5-cyclopropyl-1H-pyrazol-3-yl)amino)-1-oxobutan-2-yl)-3-fluoro-[1,1′-biphenyl]-4-yl)-4-(dimethylamino)but-2-enamide] |
| 99 | < 25 | – | CC(C)C(C(=O)Nc1cc(C2CC2)[nH]n1)c1cccc(-c2ccc(NC(=O)/C=C/CN3CCOCC3)nc2)c1 (centres unmarked) [Compound 44, (E)-N-(5-(3-(1-((5-cyclopropyl-1H-pyrazol-3-yl)amino)-3-methyl-1-oxobutan-2-yl)phenyl)pyridin-2-yl)-4-morpholinobut-2-enamide] |
| 98 | < 25 | – | C=CC(=O)N1CCc2cc(-c3cccc(C(C)C(=O)Nc4cc(C5CC5)[nH]n4)c3)ccc21 (centres unmarked) [Compound 76, 2-(3-(1-acryloylindolin-5-yl)phenyl)-N-(5-cyclopropyl-1H-pyrazol-3-yl)propanamide] |
| 91 | < 25 | – | CC(C(=O)Nc1cc(C2CC2)[nH]n1)c1cccc(-c2ccc(NC(=O)/C=C/CN3CC[C@H](F)C3)nc2)c1 (single isomer, unassigned) [Compound 47] |
| 88 | > 100 | – | C=CC(=O)Nc1ccc(-c2cccc(C(C)C(=O)Nc3cc(C4CC4)[nH]n3)c2)cc1C (centres unmarked) [Compound 66, N-(3′-(1-((5-cyclopropyl-1H-pyrazol-3-yl)amino)-1-oxopropan-2-yl)-3-methyl-[1,1′-biphenyl]-4-yl)acrylamide] |
| 95 | < 25 | – | COCCN(C)C/C=C/C(=O)Nc1ccc(-c2cccc(C(C)C(=O)Nc3cc(C4CC4)[nH]n3)c2)cn1 (centres unmarked) [Compound 68, (E)-N-(5-(3-(1-((5-cyclopropyl-1H-pyrazol-3-yl)amino)-1-oxopropan-2-yl)phenyl)pyridin-2-yl)-4-((2-methoxyethyl)(methyl)amino)but-2-enamide] |
| 86 | > 100 | – | CC(C(=O)Nc1cc(C2CC2)[nH]n1)c1cccc(-c2ccc(NC(=O)/C=C/CN3CCOCC3)cn2)c1 (centres unmarked) [Compound 35, (E)-N-(6-(3-(1-((5-cyclopropyl-1H-pyrazol-3-yl)amino)-1-oxopropan-2-yl)phenyl)pyridin-3-yl)-4-morpholinobut-2-enamide] |
| 88 | > 100 | – | CC(C(=O)Nc1cc(C2CC2)[nH]n1)c1cccc(-c2ccc(NC(=O)/C=C/CN3CCOCC3)c(F)c2)c1 (centres unmarked) [Compound 34, (E)-N-(3′-(1-((5-cyclopropyl-1H-pyrazol-3-yl)amino)-1-oxopropan-2-yl)-3-fluoro-[1,1′-biphenyl]-4-yl)-4-morpholinobut-2-enamide] |
| 94 | > 100 | – | C=CC(=O)Nc1ccc(-c2cccc(C(C)C(=O)Nc3cc(C4CC4)[nH]n3)c2)cc1OC (centres unmarked) [Compound 65, N-(3′-(1-((5-cyclopropyl-1H-pyrazol-3-yl)amino)-1-oxopropan-2-yl)-3-methoxy-[1,1′-biphenyl]-4-yl)acrylamide] |
| 81 | 25 to 100 | – | COC[C@@H]1CCCN1C/C=C/C(=O)Nc1ccc(-c2cccc(C(C)C(=O)Nc3cc(C4CC4)[nH]n3)c2)cn1 (stereo partly drawn) [Compound 70, (E)-N-(5-(3-(1-((5-cyclopropyl-1H-pyrazol-3-yl)amino)-1-oxopropan-2-yl)phenyl)pyridin-2-yl)-4-((S)-2-(methoxymethyl)pyrrolidin-1-yl)but-2-enamide] |
| 94 | > 100 | – | CC(C(=O)Nc1cc(C2CC2)[nH]n1)c1cccc(-c2ccc(NC(=O)/C=C/CN(C)C)c(F)n2)c1 (centres unmarked) [Compound 38, (E)-N-(6-(3-(1-((5-cyclopropyl-1H-pyrazol-3-yl)amino)-1-oxopropan-2-yl)phenyl)-2-fluoropyridin-3-yl)-4-(dimethylamino)but-2-enamide] |
| 96 | 25 to 100 | – | CC(C(=O)Nc1cc(C2CCCC2)[nH]n1)c1cccc(-c2ccc(NC(=O)/C=C/CN(C)C)c(F)c2)c1 (centres unmarked) [Compound 28, (E)-N-(3′-(1-((5-cyclopentyl-1H-pyrazol-3-yl)amino)-1-oxopropan-2-yl)-3-fluoro-[1,1′-biphenyl]-4-yl)-4-(dimethylamino)but-2-enamide] |
| 99 | 25 to 100 | – | CC(C(=O)Nc1cc(C2CC2)[nH]n1)c1cccc(-c2ccc(NC(=O)/C=C/CN3CCC[C@H]3CC#N)nc2)c1 (stereo partly drawn) [Compound 82, (E)-4-((S)-2-(cyanomethyl)pyrrolidin-1-yl)-N-(5-(3-(1-((5-cyclopropyl-1H-pyrazol-3-yl)amino)-1-oxopropan-2-yl)phenyl)pyridin-2-yl)but-2-enamide] |
| 96 | 25 to 100 | – | C=CC(=O)Nc1ccc(-c2cccc(C(C)C(=O)Nc3cc(C4CC4)[nH]n3)c2)nc1 (centres unmarked) [Compound 24, N-(6-(3-(1-((5-cyclopropyl-1H-pyrazol-3-yl)amino)-1-oxopropan-2-yl)phenyl)pyridin-3-yl)acrylamide] |
| 81 | > 100 | – | COC[C@@H]1CCCN1C/C=C/C(=O)Nc1ccc(-c2cccc(C(C)C(=O)Nc3cc(C4CC4)[nH]n3)c2)cn1 (single isomer, unassigned) [Compound 71] |
| 45 | – | – | CN(C)C/C=C/C(=O)Nc1ccc(C(=O)Nc2cccc(Nc3n[nH]c4ccccc34)c2)cc1 [Compound 89, (E)-N-(3-((1H-indazol-3-yl)amino)phenyl)-4-(4-(dimethylamino)but-2-enamido)benzamide] |
| 90 | > 100 | – | CC(C(=O)Nc1cc(C2CC2)[nH]n1)c1cccc(-c2ccc(NC(=O)/C=C/CN3CCOCC3)c(F)n2)c1 (centres unmarked) [Compound 58, (E)-N-(6-(3-(1-((5-cyclopropyl-1H-pyrazol-3-yl)amino)-1-oxopropan-2-yl)phenyl)-2-fluoropyridin-3-yl)-4-morpholinobut-2-enamide] |
| – | < 25 | 100 | CC(C(=O)Nc1cc(C2CC2)[nH]n1)c1cccc(-c2ccc(NC(=O)/C=C/CN3CCCC3)nc2)c1 (single isomer, unassigned) [Compound 53, (E)-N-(5-(3-(1-((5-cyclopropyl-1H-pyrazol-3-yl)amino)-1-oxopropan-2-yl)-phenyl)pyridin-2-yl)-4-(pyrrolidin-1-yl)but-2-enamide] |
